Where two headings read alike, the source gives them in different places.
Tests used:
HCT116 cells = experiment: HCT116 cell proliferation inhibition in vitro (3D CellTiter-Glo, 5 days); assay type: cell-based; conditions: Homo sapiens, HCT-116, 120 h, read-out: HCT116/IC50
Procedure: McCoy's 5A medium, penicillin/streptomycin antibiotics purchased from Vicente, fetal bovine serum purchased from Biosera. 3D CellTiter-Glo (cell viability chemiluminescence detection reagent) reagent purchased from Promega. HCT116 cell line purchased from Nanjing Kebai Biotechnology Co., Ltd. Envision multi-label analyzer (PerkinElmer).
HCT116 cells were seeded in ultra-low attachment 96-well U-shaped plates, with 80 μL of cell suspension per well, containing 1000 HCT116 cells. The cell plate was cultured in a carbon dioxide incubator overnight.
The compound to be tested was serially diluted 5-fold to the 9th concentration using a pipette, that is, from 2 mM to 5.12 nM, in duplicates. 78 μL of culture medium was added to a middle plate, and then 2 μL of the serially diluted compound per well was transferred to the middle plate according to the corresponding position. After mixing well, 20 μL of the mixture was transferred to each well of the cell plate. The concentration range of the compound transferred to the cell plate was 10 μM to 0.0256 nM. The cell plate was placed in a carbon dioxide incubator and cultured for 5 days. Another cell plate was prepared, and its signal value was read on the day of drug addition as the […] for data analysis.
100 μL of cell viability chemiluminescent detection reagent was added to the cell plate and the mixture was incubated at room temperature for 10 minutes to stabilize the luminescent signal. The plate was read using a multi-label analyzer.
The raw data was converted into inhibition rate using the equation (Sample−Min)/(Max−Min)*100%, and the IC50 value may be obtained by four-parameter curve fitting (obtained in the “log(inhibitor) vs. response—Variable slope” mode in GraphPad Prism). The assay results of the inhibitory activity of the compounds of the present disclosure on HCT116 cell proliferation are shown in Table 1.

[1] = Pharmacokinetic study in CD-1 male mice after oral and intravenous administration; assay type: in vivo; conditions: mouse, plasma; for AUC(0-t): read-out: Area under the plasma concentration-time curve AUC0-last
Procedure: Pharmacokinetic study of the test compound in CD-1 male mice after oral and intravenous injection
The test compound was mixed with 10% dimethyl sulfoxide/30% PEG-400/60% aqueous solution, vortexed and sonicated to prepare a 0.20 mg/mL clear solution. The clear solution was filtered through a microporous filter for later use. Male CD-1 mice aged 7 to 10 weeks were selected and intravenously injected with a candidate compound solution and a reference compound VS-6766 solution. The reference compound and the test compound were respectively mixed with 20% sulfobutyl-β-cyclodextrin/80% aqueous solution, vortexed and sonicated to prepare a 0.20 mg/mL nearly transparent solution containing fine particles, and the candidate compound solution was orally administered. Whole blood was collected for a certain period of time, and the plasma was prepared. The drug concentration was analyzed by LC-MS/MS method, and the pharmacokinetic parameters were calculated using Phoenix WinNonlin software (Pharsight, USA).

NCI-H358 = experiment: Subcutaneous xenograft tumor model of human non-small cell lung cancer NCI-H358 in female BALB/c Nude mice; assay type: in vivo, mouse
Procedure: In vivo pharmacodynamic study of the test drug on the subcutaneous xenograft tumor model of human non-small cell lung cancer NCI-H358 in female BALB/c Nude mice
1. Cell culture: Human lung cancer cells NCI-H358 (ECACC-95111733) were revived and cultured in vitro in monolayers in RPMI 1640 medium with 10% fetal bovine serum and 1% double antibody. The cells were cultured in a 37° C. 5% CO2 cell incubator, and passaged twice a week. When the saturation of NCI-H358 cells reached 80%-90%, the cells were harvested, counted, and inoculated.
2. Animals: BALB/c Nude mice, female, 6-8 weeks old, weighing 18-22 g
3. Tumor inoculation: 5×10^6 NCI-H358 cells were inoculated on the right side of the neck of each mouse, with an inoculation volume of 0.1 mL. The cell suspension was a mixture of PBS and Matrigel (3:1). When the average tumor volume reached 150-200 mm^3, the mice were randomly divided into groups for drug administration. The drug administration scheme and the number of assay animals in each group are shown in Table 3 below: Assay animal grouping and administration regimen
The assay index is to examine whether the tumor growth is inhibited, delayed or cured. The tumor diameter was measured with a vernier caliper twice a week. The calculation formula of tumor volume is: V=0.5 a×b^2, where a and b represent the long diameter and short diameter of the tumor respectively.
The anti-tumor efficacy of the compound was evaluated by TGI (%) or relative tumor proliferation rate T/C (%). TGI (%) reflects the tumor growth inhibition rate. Calculation of TGI (%): TGI (%)=[1−(average tumor volume of a certain treatment group at a certain measurement−average tumor volume of the treatment group at grouping)/(average tumor volume of the vehicle control group at the same measurement−average tumor volume of the vehicle control group at grouping)]×100%. Relative tumor proliferation rate T/C (%): The calculation formula is as follows: T/C %=TRTV/CRTV×100% (TRTV: RTV of the treatment group; CRTV: RTV of the negative control group). The relative tumor volume (RTV) was calculated based on the results of tumor measurement. The calculation formula is RTV=VtV0, where V0 is the average tumor volume measured at grouping (i.e. PG-D0), Vt is the average tumor volume at a certain measurement, and TRTV and CRTV are taken from the same day.
TGI (%) reflects the tumor growth inhibition rate. TGI (%)=[(1−(average tumor volume at the end of a treatment group's administration−average tumor volume at the beginning of the treatment group's administration))/(average tumor volume at the end of the vehicle control group's treatment−average tumor volume at the beginning of the vehicle control group's treatment)]×100%.

[2] = HCT116 cells, 5 days culture, cell viability chemiluminescence
[3] = 0.3 mg/kg p.o. QD, day 28 (discontinued D10-D17 and D23-D25)
[4] = 1.5 mg/kg p.o. QD, day 28 (discontinued D3-D13, changed to 0.05 after D14)

| Compound | IC50 (HCT116 cells; [2]) [nM] | IC50 (HCT116 cells) [nM] | Vd ([1]; intravenous injection, 1.04 mg/kg, read-out: Apparent volume of distribution Vdss) [L/kg] | AUC(0-t) ([1]; intravenous injection, 1.04 mg/kg) [µM·h] | clearance ([1]; intravenous injection, 1.04 mg/kg, read-out: Clearance CL) [mL/min/kg] | half-life ([1]; intravenous injection, 1.04 mg/kg, read-out: Half-life T1/2 (converted)) [h] | AUC(0-t) ([1]; oral administration, 2.16 mg/kg) [µM·h] | Cmax ([1]; oral administration, 2.16 mg/kg, read-out: Peak concentration Cmax) [µM] | Tmax ([1]; oral administration, 2.16 mg/kg, read-out: Time to peak Tmax) [h] | bioavailability ([1]; oral administration, 2.16 mg/kg, read-out: Bioavailability F) [%] | Mean tumor volume (NCI-H358; [3]) [mm^3] | T/C (NCI-H358; [3]) [%] | TGI (NCI-H358; [3]) [%] | Mean tumor volume (NCI-H358; [4]) [mm^3] | T/C (NCI-H358; [4]) [%] | TGI (NCI-H358; [4]) [%] |
| --- | --- | --- | --- | --- | --- | --- | --- | --- | --- | --- | --- | --- | --- | --- | --- | --- |
| CNS(=O)(=O)Nc1cccc(Cc2c(C)c3c(F)cc(Oc4ncccn4)cc3oc2=O)c1F [Compound 1] | 17 | – | – | – | – | – | – | – | – | – | – | – | – | – | – | – |
| CNS(=O)(=O)Nc1cccc(Cc2c(C)c3c(F)cc(OC(=O)N(C)C)cc3oc2=O)c1F [Compound 2] | – | 7.2 | – | – | – | – | – | – | – | – | – | – | – | – | – | – |
| CNS(=O)(=O)Nc1nccc(Cc2c(C)c3c(F)cc(Oc4ncccn4)cc3oc2=O)c1F [Compound 3] | 28.7 | – | 0.35 | 46.8 | 0.69 | 5.73 | 85.8 | 10.9 | 0.63 | 89.8 | 71 | 7.90 | 111.4 | 67 | 7.45 | 111.9 |

— US20250154120A1, “COUMARIN COMPOUNDS AND USES THEREOF” (priority 2022, published 2025)
